Data: ChEMBL document CHEMBL1140789, “Sulfonate chalcone as new class voltage-dependent K+ channel blocker” (Bioorg Med Chem Lett, 2008)

Assays:
Assay type in all cases: cell-based
[1] = Blockade of human K+ channel in HEK293 cells assessed as inhibition of outward delayed rectifying K+ current
[2] = system: HEK293; test: Blockade of human K+ channel in HEK293 cells assessed as inhibition of outward delayed rectifying K+ current at 10 uM
[3] = target: Potassium voltage-gated channel subfamily A member 6 (Homo sapiens) (UniProt P17658); test: Blockade of Kv1.6 channel over-expressed in CHO cells assessed as inhibition of delayed rectifying K+ current at 10 uM
[4] = target: Potassium voltage-gated channel subfamily A member 1 (Homo sapiens) (UniProt Q09470); test: Blockade of Kv1.1 channel over-expressed in CHO cells assessed as inhibition of delayed rectifying K+ current at 10 uM
[5] = target: Potassium voltage-gated channel subfamily A member 2 (Homo sapiens) (UniProt P16389); test: Blockade of Kv1.2 channel over-expressed in CHO cells assessed as inhibition of delayed rectifying K+ current at 10 uM
[6] = target: Potassium voltage-gated channel subfamily A member 3 (Homo sapiens) (UniProt P22001); test: Blockade of Kv1.3 channel over-expressed in CHO cells assessed as inhibition of delayed rectifying K+ current at 10 uM
Sequence of Potassium voltage-gated channel subfamily A member 3 (Homo sapiens) (P22001 whole entry): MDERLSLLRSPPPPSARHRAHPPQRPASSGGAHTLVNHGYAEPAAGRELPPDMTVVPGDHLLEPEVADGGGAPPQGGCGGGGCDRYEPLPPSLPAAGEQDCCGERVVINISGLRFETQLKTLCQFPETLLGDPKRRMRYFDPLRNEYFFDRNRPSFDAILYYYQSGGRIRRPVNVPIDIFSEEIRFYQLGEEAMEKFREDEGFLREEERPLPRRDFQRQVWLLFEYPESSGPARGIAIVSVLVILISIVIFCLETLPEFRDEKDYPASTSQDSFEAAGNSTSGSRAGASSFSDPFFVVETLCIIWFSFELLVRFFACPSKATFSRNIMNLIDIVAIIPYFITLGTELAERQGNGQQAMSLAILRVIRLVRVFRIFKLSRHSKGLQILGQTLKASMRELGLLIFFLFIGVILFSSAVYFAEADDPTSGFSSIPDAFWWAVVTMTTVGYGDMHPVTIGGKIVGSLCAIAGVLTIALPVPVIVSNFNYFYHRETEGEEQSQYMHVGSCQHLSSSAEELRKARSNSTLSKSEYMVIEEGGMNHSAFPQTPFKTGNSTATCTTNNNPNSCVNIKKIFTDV

Sequence of Potassium voltage-gated channel subfamily A member 1 (Homo sapiens) (Q09470 whole entry): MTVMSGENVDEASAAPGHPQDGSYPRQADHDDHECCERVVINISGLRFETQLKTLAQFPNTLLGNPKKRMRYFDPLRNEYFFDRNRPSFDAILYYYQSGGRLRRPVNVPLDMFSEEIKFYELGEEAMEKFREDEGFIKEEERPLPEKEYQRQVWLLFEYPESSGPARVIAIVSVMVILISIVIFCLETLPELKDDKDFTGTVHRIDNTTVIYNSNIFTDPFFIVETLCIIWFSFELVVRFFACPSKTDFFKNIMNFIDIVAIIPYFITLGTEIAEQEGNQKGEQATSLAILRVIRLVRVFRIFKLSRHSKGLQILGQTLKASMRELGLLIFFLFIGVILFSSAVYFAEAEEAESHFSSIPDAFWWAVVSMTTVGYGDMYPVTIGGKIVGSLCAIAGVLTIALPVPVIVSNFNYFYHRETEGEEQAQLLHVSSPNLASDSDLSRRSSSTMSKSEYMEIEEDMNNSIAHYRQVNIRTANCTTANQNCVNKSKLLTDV
Sequence of Potassium voltage-gated channel subfamily A member 6 (Homo sapiens) (P17658 whole entry): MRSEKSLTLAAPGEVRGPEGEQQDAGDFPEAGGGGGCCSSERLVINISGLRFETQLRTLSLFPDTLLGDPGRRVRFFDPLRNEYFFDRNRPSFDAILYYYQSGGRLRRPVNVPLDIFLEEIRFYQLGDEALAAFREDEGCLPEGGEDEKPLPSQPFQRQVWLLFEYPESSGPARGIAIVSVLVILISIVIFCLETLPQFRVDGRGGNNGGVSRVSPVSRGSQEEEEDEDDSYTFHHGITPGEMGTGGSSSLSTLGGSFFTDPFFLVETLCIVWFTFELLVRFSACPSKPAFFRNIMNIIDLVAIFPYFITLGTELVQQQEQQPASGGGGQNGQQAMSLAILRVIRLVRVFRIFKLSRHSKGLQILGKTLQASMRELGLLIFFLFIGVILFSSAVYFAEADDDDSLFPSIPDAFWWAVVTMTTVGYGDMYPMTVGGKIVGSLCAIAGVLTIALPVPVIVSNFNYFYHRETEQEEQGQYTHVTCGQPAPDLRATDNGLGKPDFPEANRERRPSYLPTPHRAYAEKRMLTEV
Sequence of Potassium voltage-gated channel subfamily A member 2 (Homo sapiens) (P16389 whole entry): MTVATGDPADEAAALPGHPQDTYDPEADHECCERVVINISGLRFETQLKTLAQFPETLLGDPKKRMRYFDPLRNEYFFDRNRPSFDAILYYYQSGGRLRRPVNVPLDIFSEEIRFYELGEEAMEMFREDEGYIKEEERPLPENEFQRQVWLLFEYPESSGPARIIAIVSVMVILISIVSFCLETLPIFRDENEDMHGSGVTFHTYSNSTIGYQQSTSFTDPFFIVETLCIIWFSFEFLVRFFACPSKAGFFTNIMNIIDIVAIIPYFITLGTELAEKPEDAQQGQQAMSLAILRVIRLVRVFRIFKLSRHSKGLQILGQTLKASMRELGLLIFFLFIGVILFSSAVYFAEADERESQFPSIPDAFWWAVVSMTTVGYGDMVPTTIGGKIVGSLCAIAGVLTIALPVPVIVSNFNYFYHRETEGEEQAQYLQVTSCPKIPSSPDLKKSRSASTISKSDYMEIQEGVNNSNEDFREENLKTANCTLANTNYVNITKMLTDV

Row | Structure (SMILES) | IC50 [1] [µM] | further results
1 | O=C(/C=C/c1ccccc1)c1ccc(O)cc1 [4'-HYDROXYCHALCONE] | > 50 | 
2 | O=C(/C=C/c1ccccc1)c1ccccc1 [CHALCONE] | > 50 | inhibition [2]: 24.2%
3 | CC(=O)Nc1ccc(S(=O)(=O)Oc2ccc(C(=O)/C=C/c3ccc(O)cc3)cc2)cc1 | > 10 | 
4 | O=C(/C=C/c1ccc(O)cc1)c1ccccc1 [4-HYDROXYCHALCONE] | > 50 | 
5 | O=C(/C=C/c1ccc(OS(=O)(=O)c2ccccc2)cc1)c1ccccc1 | > 50 | 
6 | O=C(/C=C/c1ccc(OS(=O)(=O)c2ccc(F)cc2)cc1)c1ccccc1 | > 50 | 
7 | Cc1ccc(S(=O)(=O)Oc2ccc(/C=C/C(=O)c3ccc(O)cc3)cc2)cc1 | > 50 | 
8 | O=C(/C=C/c1ccc(O)cc1)c1ccc(O)cc1 [4,4'-DIHYDROXYCHALCONE] | > 50 | inhibition [2]: 28.2%
9 | Cc1ccc(S(=O)(=O)Oc2ccc(/C=C/C(=O)c3ccccc3)cc2)cc1 | > 50 | 
10 | COc1ccc(/C=C/C(=O)c2ccc(OS(=O)(=O)c3ccc(C)cc3)cc2)cc1 | > 10 | 

More lines, main results first:

Row | IC50 [1] [µM] | Structure (SMILES) | further results
11 | 1.1 | Nc1ccc(S(=O)(=O)Oc2ccc(C(=O)/C=C/c3ccc(O)cc3)cc2)cc1 | 
12 | 1.6 | Cc1ccc(S(=O)(=O)Oc2ccc(C(=O)/C=C/c3ccc(O)cc3)cc2)cc1 | 
13 | 10.7 | O=C(/C=C/c1ccc(O)cc1)c1ccc(OS(=O)(=O)c2ccc([N+](=O)[O-])cc2)cc1 | 
14 | 2.7 | O=C(/C=C/c1ccc(O)cc1)c1ccc(OS(=O)(=O)c2ccc(F)cc2)cc1 | 
15 | 2.4 | O=C(/C=C/c1ccc(O)cc1)c1ccc(OS(=O)(=O)c2ccccc2)cc1 | 
16 | 0.85 | Nc1ccc(S(=O)(=O)Oc2ccc(C(=O)/C=C/c3ccccc3)cc2)cc1 | 
17 | 0.51 | Nc1ccc(S(=O)(=O)Oc2cccc(C(=O)/C=C/c3ccc(O)cc3)c2)cc1 | inhibition [3]: 44.2%; inhibition [4]: 87.5%; inhibition [5]: 87.4%; inhibition [6]: 20.6%
